According to PubChem BioAssay (NCI):
Values joined by “and” are separate entries in the source; they are usually repeats but may differ in a detail not shown here. Equal entries are not always repeated.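 Five concentrations, 48 hours, 96-well plates. Here, GI50 denotes the concentration required for 50% inhibition of growth. Definition used: TGI = concentration required for complete inhibition of growth.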

Columns and labels:
Test in all cases: inhibition of tumour cell growth, NCI panel, 48 h
[1] = system: HOP-92 NSCLC
[2] = system: A498 renal
[3] = system: PC-3 prostate
[4] = system: SNB-19 CNS
[5] = system: ACHN renal
[6] = system: MCF7 breast
[7] = system: MALME-3M melanoma
[8] = system: HT29 colon
[9] = system: MOLT-4 leukemia
[10] = system: EKVX NSCLC

Row | SMILES | TGI [1] | TGI [2] | TGI [3] | TGI [4] | TGI [5] | TGI [6] | TGI [7] | TGI [8] | TGI [9] | TGI [10] | GI50 [2] | GI50 [3] | GI50 [4] | GI50 [5] | GI50 [6] | GI50 [7] | GI50 [8] | GI50 [9] | GI50 [10] | GI50 [1]
1 | C=C(C)C1CCC2=CC(CC3(C)OC3C3=CC(C(=O)OC)=C(C1)O3)OC2=O (stereo not given) | > 100 µM | > 100 µM | > 100 µM | > 100 µM | > 100 µM | > 100 µM | > 100 µM | > 100 µM | > 100 µM | > 100 µM | – | – | – | – | – | – | – | – | – | –
2 | CCCCSc1nc(N)c2cn[nH]c2n1 | 2.39 µM | 31 µM | 41.8 µM | > 76.8 µM | > 76.1 µM | > 62.5 µM | 42.9 µM | 62.6 µM | > 78 µM | 57.3 µM | 15.9 µM | 17.9 µM | 37.3 µM | 24.8 µM | 23.4 µM | 24.6 µM | 25.5 µM | 26.3 µM | 15.6 µM | –
3 | O=C1C(Cl)=C(Cl)C(=O)N1c1ccc(F)cc1 | 35.8 µM | > 100 µM | 29.8 µM | > 73.2 µM | 36.3 µM | 42.9 µM | 32.5 µM | 49.8 µM | 34.8 µM | 40.6 µM | – | – | – | – | – | – | – | – | – | –
4 | COc1cc(C2c3cc4c(cc3[C@@H](Nc3ccc([N+](=O)[O-])cc3)C3COC(=O)[C@H]23)OCO4)cc(OC)c1O (stereo not given in full) | – | 4.8 µM | > 100 µM | 25.8 µM | 2.82 µM | > 43.1 µM | 10.5 µM | 7.81 µM | 0.544 µM and 0.442 µM | 17.2 µM | 0.536 µM | – | 0.481 µM | – | – | 0.943 µM | – | 0.0342 µM | – | 0.393 µM
5 | Cc1c(NC(=O)Nc2c(Cl)cccc2Cl)c(=O)n(-c2ccccc2)n1C | > 100 µM | > 100 µM | > 100 µM | > 100 µM | > 100 µM | > 100 µM | > 100 µM | > 100 µM | > 100 µM | > 100 µM | – | – | – | – | – | – | – | – | – | –
6 | CSc1ccc(NC(=O)Nc2cc(C)ccn2)cc1 | > 100 µM | > 100 µM | > 100 µM | > 100 µM | > 100 µM | > 100 µM | > 100 µM | > 100 µM | > 100 µM | > 100 µM | – | – | – | – | – | – | – | – | – | –
7 | Cc1c(Cl)cccc1NC(=O)c1sc2nc3c(cc2c1N)C(=O)CCC3 | 24.1 µM | 0.203 µM | > 52.2 µM | > 100 µM | > 61.5 µM | > 100 µM | > 100 µM | > 33.4 µM | > 100 µM | – | 0.023 µM | 0.0517 µM | 0.0698 µM | 0.0825 µM | 0.0452 µM | 0.0363 µM | 0.0445 µM | 0.466 µM | – | 0.0479 µM
8 | Cc1ccc(N=Nc2c(O)ccc3n[nH]nc23)cc1 | 83.8 µM | 42.2 µM | > 100 µM | > 100 µM | 69.2 µM | 97.5 µM | 48 µM | > 100 µM | 12.8 µM | 50 µM | 1.99 µM | 5.99 µM | 20.7 µM | 11.5 µM | 9.25 µM | 8.17 µM | 31.8 µM | 2.89 µM | 11.6 µM | 15.4 µM
9 | Cn1cc(C2=C(c3cc[nH]c3)C(=O)NC2=O)c2ccccc21 | > 25 µM | > 25 µM | > 25 µM | > 25 µM | > 25 µM | > 25 µM | > 25 µM | > 25 µM | > 25 µM | – | 8.98 µM | > 25 µM | > 25 µM | > 25 µM | 11.8 µM | > 25 µM | > 25 µM | > 25 µM | – | > 25 µM
10 | Cc1nc2sc(C(=O)Nc3ccccc3)c(N)c2cc1C(O)c1ccccc1 (stereo not given) | 54.5 µM | 1.19 µM | > 71 µM | > 100 µM | > 60.8 µM | 19.1 µM | 34.3 µM | 17.6 µM | 25.5 µM | > 100 µM | 0.106 µM | 0.427 µM | 0.446 µM | 0.512 µM | 0.091 µM | 0.6 µM | 0.326 µM | 0.367 µM | 0.597 µM | 3.56 µM
11 | Cn1c2c(c3ccccc3c1=O)C(=O)c1ccccc1-2 | > 100 µM | > 100 µM | > 100 µM | > 100 µM | – | > 100 µM | > 100 µM | > 100 µM | > 100 µM | > 100 µM | – | – | – | – | – | – | – | – | – | –
12 | CNCC(=O)NC(CO)C(=O)NC(CO)C(=O)NC1C(C(N)=O)OC(n2ccc(N)nc2=O)C(O)C1O (stereo not given) | > 50 µg/mL | > 50 µg/mL | 47.5 µg/mL | 45.1 µg/mL | > 50 µg/mL | > 50 µg/mL | 7.58 µg/mL | > 50 µg/mL | > 50 µg/mL | 31.8 µg/mL | 13 µg/mL | 10.2 µg/mL | 6.5 µg/mL | 5.15 µg/mL | > 50 µg/mL | 0.225 µg/mL | 25.9 µg/mL | > 50 µg/mL | 7.9 µg/mL | 4.83 µg/mL
13 | COC(=O)c1c2c(c(C)[n+]([O-])c1C)C(=O)C(NCc1ccc(F)cc1)=CC2=O | 4.61 µM | 3.29 µM | > 100 µM | 5.2 µM | 4.04 µM | 2.86 µM | 0.493 µM | > 100 µM | 5.33 µM | 4.14 µM | 1.57 µM | 1.79 µM | 2.1 µM | 1.73 µM | 1.11 µM | 0.187 µM | 0.711 µM | 1.98 µM | 1.66 µM | 2.31 µM
14 | CC1=NN(c2cccc(Cl)c2)C(=O)/C1=C\C=C\c1ccccc1 | 43 µM | > 100 µM | > 100 µM | > 100 µM | 3.34 µM | 18.8 µM | 9.19 µM | 7.4 µM | > 100 µM | > 100 µM | 17.7 µM | 2.93 µM | 5.67 µM | 1.79 µM | 1.12 µM | 2.76 µM | 2.98 µM | 3.17 µM | 3.04 µM | 4.63 µM
15 | Cc1nn(Cc2ccccc2)cc1C(=O)Nc1sc2c(c1C(N)=O)CCC(=O)C2 | 4.47 µM | 28.2 µM | 5.14 µM | > 100 µM | 3.35 µM | 7.59 µM | 3.79 µM | 6.58 µM | 9.27 µM | 21.7 µM | 3.97 µM | 0.752 µM | 3.33 µM | 1.65 µM | 2.48 µM | 1.89 µM | 2.27 µM | 2.62 µM | 3.03 µM | 1.88 µM
16 | Cc1cc2c3c([n+](C)c4ccc(F)cc4c3c1)-c1cc(F)ccc1N2C | 46 µM | > 100 µM | 77.7 µM | > 100 µM | > 100 µM | 44.6 µM | 17.2 µM | > 100 µM | > 100 µM | > 100 µM | > 100 µM | 19.9 µM | 4.13 µM | 39.1 µM | 14.3 µM | 4.19 µM | 33.2 µM | 3.28 µM | 62.4 µM | 16.4 µM
17 | [Cl][Hg][c]1ccc2ccccc2c1 | 3.46 µM | 12.4 µM | 11.8 µM | 5.21 µM | 11.8 µM | 5.61 µM | 3.4 µM | 9.58 µM | 15.2 µM | 7.96 µM | 3.96 µM | 3.92 µM | 2.22 µM | 4.33 µM | 2.07 µM | 1.78 µM | 2.8 µM | 2.01 µM | 3.07 µM | 1.92 µM
18 | CN(C)c1cc2c(Nc3ccc4c(cnn4Cc4ccccc4)c3)ncnc2cn1 | > 25 µM | > 25 µM | > 25 µM | > 25 µM | > 25 µM | > 25 µM | > 25 µM | > 25 µM | > 25 µM | > 8.76 µM | 16.7 µM | 10 µM | 12.7 µM | 2.1 µM | 16.5 µM | 12.9 µM | 8.98 µM | 9.47 µM | 0.108 µM | 8.82 µM
19 | CC(C)(O)CCc1cccc(C(=O)c2cnn(-c3ccc(F)cc3)c2N)c1 | > 25 µM | > 25 µM | > 25 µM | > 25 µM | > 25 µM | > 25 µM | > 25 µM | > 25 µM | > 25 µM | – | > 18.4 µM | > 25 µM | > 25 µM | > 25 µM | > 25 µM | > 25 µM | > 25 µM | > 25 µM | – | 8.7 µM
20 | O=C1CC(Cc2n[nH]c3c2CCCC3)CC(=O)N1 | > 100 µM | > 100 µM | > 100 µM | – | – | > 100 µM | > 100 µM | > 100 µM | > 100 µM | > 100 µM | – | – | – | – | – | – | – | – | – | –
21 | O=C(N=Nc1c(Cl)c(O)c2ccccc2c1O)C(=O)Nc1cccc(C(F)(F)F)c1 | 15.6 µM | 23.6 µM | 16.2 µM | 17.6 µM | 7.12 µM | 4.31 µM | 7.64 µM | 28 µM | 8.88 µM | – | 9.13 µM | 3 µM | 4.6 µM | 1.92 µM | 1.84 µM | 3.12 µM | 6.44 µM | 2.93 µM | – | 1.98 µM
22 | COC(=O)c1ccc(NC(=O)c2ccc(NC3=C(Cl)C(=O)N(Cc4ccccc4)C3=O)cc2)cc1 | 25.4 µM | 58.6 µM | 26.6 µM | 30.4 µM | 31 µM | 41.3 µM | – | 51.2 µM | 25.6 µM | > 100 µM | 28.4 µM | 13.7 µM | 16.5 µM | 17.2 µM | 7.16 µM | – | 22.5 µM | 13 µM | 45.4 µM | 12.8 µM
